Experimental data from patent US20240116985A1, “STAPLED PEPTIDES AND METHODS THEREOF” (priority 2020, published 2024).
Like-named read-outs stand apart in the source and are kept apart here.

Key:
[1] = molecular target: T1, beta-catenin/TCF4 engagement (Homo sapiens, UniProt P35222); assay: Nano-BRET target engagement assay (B-cat-Halo & TCF4-Luc in HEK293 cells); type: cell-based
T1 construct: expressed in transfected cells; host or cells: HEK293
T1 sequence (P35222 1-781): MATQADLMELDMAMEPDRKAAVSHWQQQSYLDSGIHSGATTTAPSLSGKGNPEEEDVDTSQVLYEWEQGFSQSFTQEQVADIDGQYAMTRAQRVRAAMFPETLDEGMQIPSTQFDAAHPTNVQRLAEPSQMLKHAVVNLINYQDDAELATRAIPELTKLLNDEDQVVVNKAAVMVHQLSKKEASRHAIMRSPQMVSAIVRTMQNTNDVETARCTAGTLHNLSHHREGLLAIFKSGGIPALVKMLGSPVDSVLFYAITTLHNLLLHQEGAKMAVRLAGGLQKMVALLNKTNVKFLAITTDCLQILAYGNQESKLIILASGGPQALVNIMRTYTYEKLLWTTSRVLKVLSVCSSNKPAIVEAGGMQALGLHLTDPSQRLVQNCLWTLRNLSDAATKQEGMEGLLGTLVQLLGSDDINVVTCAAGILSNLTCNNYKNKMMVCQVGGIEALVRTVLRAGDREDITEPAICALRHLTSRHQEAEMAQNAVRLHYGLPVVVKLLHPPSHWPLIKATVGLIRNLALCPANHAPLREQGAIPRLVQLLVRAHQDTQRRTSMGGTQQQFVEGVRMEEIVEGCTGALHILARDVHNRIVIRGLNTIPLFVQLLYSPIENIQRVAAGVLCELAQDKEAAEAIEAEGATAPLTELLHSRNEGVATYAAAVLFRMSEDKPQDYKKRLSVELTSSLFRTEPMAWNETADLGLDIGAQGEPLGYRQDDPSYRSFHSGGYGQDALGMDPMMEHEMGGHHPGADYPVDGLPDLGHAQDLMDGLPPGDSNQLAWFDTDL

[2] = molecular target: T2, full-length beta-Catenin (Uniprot ID P35222) (Homo sapiens, UniProt P35222); assay: Fluorescence polarization IC50 (beta-catenin / 5FAM-TCF4 10-53 competition); type: binding; details: fluorescence polarization
T2 construct: 10 nM full-length beta-Catenin (Uniprot ID P35222)
T2 sequence (P35222 1-781): T1 sequence (P35222 1-781)

SMILES | IC50 ([1]; read-out: NanoBRET Abs IC50) [µM] | IC50 ([2]; read-out: beta-Catenin FP IC50) [nM] | IC50 ([1]; NanoBRET Abs IC50 (uM)) [µM] | IC50 ([2]; beta-Catenin FP IC50 (nM)) [nM]
CC(=O)N1CCC[C@]12CC=CCCCC1(CCCC=CCCCOC(=O)N3CC[C@@](C(=O)N[C@@H](Cc4ccsc4)C(=O)N[C@@H](Cc4csc5ccccc45)C(=O)N[C@@H](Cc4ccccc4)C(N)=O)(C3)NC(=O)[C@H](CC(C)C)NC(=O)[C@H](Cc3ccccc3)NC(=O)[C@H](C)NC(=O)[C@H](CCCCNC(C)C)NC(=O)[C@H](Cc3cccc(C(=O)O)c3)NC(=O)[C@H](CC(=O)O)NC1=O)NC(=O)[C@H](CC(C)(C)C)NC(=O)[C@H](CC(=O)O)NC2=O (stereo partly drawn) [I-1909, Ac-PL3-Asp-Npg-B5-Asp-3COOHF-iPrLys-Ala-Phe-Leu-PyrS2-3Thi-BztA-Phe-NH2] | > 20 | 29 |  | 
CC(=O)N1CCC[C@]12CC=CCCCC1(CCCC=CCCCOC(=O)N3CC[C@@](C(=O)N[C@@H](Cc4ccsc4)C(=O)N[C@@H](Cc4csc5ccccc45)C(=O)N[C@@H](Cc4ccccc4)C(N)=O)(C3)NC(=O)[C@H](CC(C)C)NC(=O)[C@H](Cc3ccccc3)NC(=O)[C@H](C)NC(=O)[C@H](CCCCN)NC(=O)[C@H](Cc3cccc(C(=O)O)c3)NC(=O)[C@H](CC(=O)O)NC1=O)NC(=O)[C@H](CC(C)(C)C)NC(=O)[C@H](CC(=O)O)NC2=O (stereo partly drawn) [I-1911, Ac-PL3-Asp-Npg-B5-Asp-3COOHF-Lys-Ala-Phe-Leu-PyrS2-3Thi-BztA-Phe-NH2] | > 20 | 38 |  | 
CC(=O)N1CCC[C@]12CC=CCCCC1(CCCC=CCCCOC(=O)N3CC[C@@](C(=O)N[C@@H](Cc4ccsc4)C(=O)N[C@@H](Cc4csc5ccccc45)C(=O)N[C@@H](C)C(N)=O)(C3)NC(=O)[C@H](CC(C)C)NC(=O)[C@H](Cc3ccccc3)NC(=O)[C@H](C)NC(=O)[C@H](CCCCNC(C)C)NC(=O)[C@H](Cc3cccc(C(=O)O)c3)NC(=O)[C@H](CC(=O)O)NC1=O)NC(=O)[C@H](CC(C)(C)C)NC(=O)[C@H](CC(=O)O)NC2=O (stereo partly drawn) [I-1915, Ac-PL3-Asp-Npg-B5-Asp-3COOHF-iPrLys-Ala-Phe-Leu-PyrS2-3Thi-BztA-Ala-NH2] | 20.2 | 11 |  | 
CC(=O)N1CCC[C@]12CC=CCCCC1(CCCC=CCCCOC(=O)N3CC[C@@](C(=O)N[C@@H](Cc4ccsc4)C(=O)N[C@@H](Cc4csc5ccccc45)C(=O)N[C@@H](C)C(N)=O)(C3)NC(=O)[C@H](CC(C)C)NC(=O)[C@H](Cc3ccccc3)NC(=O)[C@H](C)NC(=O)[C@H](CCCCN)NC(=O)[C@H](Cc3cccc(C(=O)O)c3)NC(=O)[C@H](CC(=O)O)NC1=O)NC(=O)[C@H](CC(C)(C)C)NC(=O)[C@H](CC(=O)O)NC2=O (stereo partly drawn) [I-1917, Ac-PL3-Asp-Npg-B5-Asp-3COOHF-Lys-Ala-Phe-Leu-PyrS2-3Thi-BztA-Ala-NH2] | 37.7 | 13 |  | 
CC(=O)N1CCC[C@]12CC=CCCCC1(CCCC=CCCCOC(=O)N3CC[C@@](C(=O)N[C@@H](Cc4cccc(C(N)=O)c4)C(=O)N[C@@H](Cc4csc5ccccc45)C(=O)N[C@@H](CCO)C(N)=O)(C3)NC(=O)[C@H](CC(N)=O)NC(=O)[C@H](Cc3ccccc3)NC(=O)[C@H](C)NC(=O)[C@H](CCCCNC(C)C)NC(=O)[C@H](CCC(N)=O)NC(=O)[C@H](CC(=O)O)NC1=O)NC(=O)[C@H](CC1CCCCC1)NC(=O)[C@H](CC(N)=O)NC2=O (stereo partly drawn) [I-1929, Ac-PL3-Asn-Cha-B5-Asp-Gln-iPrLys-Ala-Phe-Asn-PyrS2-3cbmf-BztA-Hse-NH2] | > 20 | 74 |  | 
CC(=O)N1CCC[C@]12CC=CCCCC1(CCCC=CCCCOC(=O)N3CC[C@@](C(=O)N[C@@H](Cc4ccsc4)C(=O)N[C@@H](Cc4csc5ccccc45)C(=O)N[C@@H](CCC(N)=O)C(N)=O)(C3)NC(=O)[C@H](CCC(=O)N3CCN(c4ccncc4)CC3)NC(=O)[C@H](Cc3ccccc3)NC(=O)[C@H](C)NC(=O)[C@H](C)NC(=O)[C@H](CN(CC(=O)O)CC(F)(F)F)NC(=O)[C@H](CC(=O)O)NC1=O)NC(=O)[C@H](CC(C)(C)C)NC(=O)[C@H](CC(=O)O)NC2=O (stereo partly drawn) [I-1938, Ac-PL3-Asp-Npg-B5-Asp-TfeGA-Ala-Ala-Phe-[4PyPip]GlnR-PyrS2-3Thi-BztA-Gln-NH2] |  |  | 30 | 8

Continued, in another order:

IC50 ([1]; read-out: NanoBRET Abs IC50) [µM] | IC50 ([2]; read-out: beta-Catenin FP IC50) [nM] | SMILES | IC50 ([1]; NanoBRET Abs IC50 (uM)) [µM] | IC50 ([2]; beta-Catenin FP IC50 (nM)) [nM]
11.5 | 13 | CC(=O)N1CCC[C@]12CC=CCCCC1(CCCC=CCCCOC(=O)N3CC[C@@](C(=O)N[C@@H](Cc4ccsc4)C(=O)N[C@@H](Cc4csc5ccccc45)C(=O)N[C@@H](Cc4ccccc4)C(N)=O)(C3)NC(=O)[C@H](CC(C)C)NC(=O)[C@H](Cc3ccccc3)NC(=O)[C@H](C)NC(=O)[C@H](CCC(N)=O)NC(=O)[C@H](Cc3cccc(C(=O)O)c3)NC(=O)[C@H](CC(=O)O)NC1=O)NC(=O)[C@H](CC(C)(C)C)NC(=O)[C@H](CC(=O)O)NC2=O (stereo partly drawn) [I-1912, Ac-PL3-Asp-Npg-B5-Asp-3COOHF-Gln-Ala-Phe-Leu-PyrS2-3Thi-BztA-Phe-NH2] |  | 
17.5 | 119 | CCCC[C@@H]1NC(=O)[C@H](Cc2cccc(C(=O)O)c2)NC(=O)[C@H](CC(=O)O)NC(=O)C2(CCCC=CCCCOC(=O)N3CC[C@@](C(=O)N[C@@H](Cc4ccsc4)C(=O)N[C@@H](Cc4csc5ccccc45)C(=O)N[C@@H](Cc4ccccc4)C(N)=O)(C3)NC(=O)[C@H](CC(C)C)NC(=O)[C@H](Cc3ccccc3)NC(=O)[C@H](C)NC1=O)CCCC=CC[C@]1(CCCN1C(C)=O)C(=O)N[C@@H](CC(=O)O)C(=O)N[C@@H](CC(C)(C)C)C(=O)N2 (stereo partly drawn) [I-1913, Ac-PL3-Asp-Npg-B5-Asp-3COOHF-nLeu-Ala-Phe-Leu-PyrS2-3Thi-BztA-Phe-NH2] |  | 
6.4 | 52 | CC(=O)N1CCC[C@]12CC=CCCCC1(CCCC=CCCCOC(=O)N3CC[C@@](C(=O)N[C@@H](Cc4ccsc4)C(=O)N[C@@H](Cc4csc5ccccc45)C(=O)N[C@@H](Cc4ccccc4)C(N)=O)(C3)NC(=O)[C@H](CC(C)C)NC(=O)[C@H](Cc3ccccc3)NC(=O)[C@H](C)NC(=O)C(C)(C)NC(=O)[C@H](Cc3cccc(C(=O)O)c3)NC(=O)[C@H](CC(=O)O)NC1=O)NC(=O)[C@H](CC(C)(C)C)NC(=O)[C@H](CC(=O)O)NC2=O (stereo partly drawn) [I-1914, Ac-PL3-Asp-Npg-B5-Asp-3COOHF-Aib-Ala-Phe-Leu-PyrS2-3Thi-BztA-Phe-NH2] |  | 
9.2 | 8 | CC(=O)N1CCC[C@]12CC=CCCCC1(CCCC=CCCCOC(=O)N3CC[C@@](C(=O)N[C@@H](Cc4ccsc4)C(=O)N[C@@H](Cc4csc5ccccc45)C(=O)N[C@@H](C)C(N)=O)(C3)NC(=O)[C@H](CC(C)C)NC(=O)[C@H](Cc3ccccc3)NC(=O)[C@H](C)NC(=O)[C@H](Cc3c[nH]cn3)NC(=O)[C@H](Cc3cccc(C(=O)O)c3)NC(=O)[C@H](CC(=O)O)NC1=O)NC(=O)[C@H](CC(C)(C)C)NC(=O)[C@H](CC(=O)O)NC2=O (stereo partly drawn) [I-1916, Ac-PL3-Asp-Npg-B5-Asp-3COOHF-His-Ala-Phe-Leu-PyrS2-3Thi-BztA-Ala-NH2] |  | 
4.7 | 33 | CCCC[C@@H]1NC(=O)[C@H](Cc2cccc(C(=O)O)c2)NC(=O)[C@H](CC(=O)O)NC(=O)C2(CCCC=CCCCOC(=O)N3CC[C@@](C(=O)N[C@@H](Cc4ccsc4)C(=O)N[C@@H](Cc4csc5ccccc45)C(=O)N[C@@H](C)C(N)=O)(C3)NC(=O)[C@H](CC(C)C)NC(=O)[C@H](Cc3ccccc3)NC(=O)[C@H](C)NC1=O)CCCC=CC[C@]1(CCCN1C(C)=O)C(=O)N[C@@H](CC(=O)O)C(=O)N[C@@H](CC(C)(C)C)C(=O)N2 (stereo partly drawn) [I-1919, Ac-PL3-Asp-Npg-B5-Asp-3COOHF-nLeu-Ala-Phe-Leu-PyrS2-3Thi-BztA-Ala-NH2] |  | 
7.1 | 9 | CC(=O)N1CCC[C@]12CC=CCCCC1(CCCC=CCCCOC(=O)N3CC[C@@](C(=O)N[C@@H](Cc4ccsc4)C(=O)N[C@@H](Cc4csc5ccccc45)C(=O)N[C@@H](CCC(N)=O)C(N)=O)(C3)NC(=O)[C@H](CCC(=O)N3CCN(CC(F)(F)F)CC3)NC(=O)[C@H](Cc3ccccc3)NC(=O)[C@H](C)NC(=O)[C@H](C)NC(=O)[C@H](CN(CC(=O)O)CC(F)(F)F)NC(=O)[C@H](CC(=O)O)NC1=O)NC(=O)[C@H](CC(C)(C)C)NC(=O)[C@H](CC(=O)O)NC2=O (stereo partly drawn) [I-1935, Ac-PL3-Asp-Npg-B5-Asp-TfeGA-Ala-Ala-Phe-[TfePpz]GlnR-PyrS2-3Thi-BztA-Gln-NH2] |  | 
15.7 | 10 | CC(=O)N1CCC[C@]12CC=CCCCC1(CCCC=CCCCOC(=O)N3CC[C@@](C(=O)N[C@@H](Cc4ccsc4)C(=O)N[C@@H](Cc4csc5ccccc45)C(=O)N[C@@H](CCC(N)=O)C(N)=O)(C3)NC(=O)[C@H](CCC(=O)N3CCN(CCCN(C)C)CC3)NC(=O)[C@H](Cc3ccccc3)NC(=O)[C@H](C)NC(=O)[C@H](C)NC(=O)[C@H](CN(CC(=O)O)CC(F)(F)F)NC(=O)[C@H](CC(=O)O)NC1=O)NC(=O)[C@H](CC(C)(C)C)NC(=O)[C@H](CC(=O)O)NC2=O (stereo partly drawn) [I-1936, Ac-PL3-Asp-Npg-B5-Asp-TfeGA-Ala-Ala-Phe-[Me2NPrPip]GlnR-PyrS2-3Thi-BztA-Gln-NH2] |  | 
